Reference: ChEMBL document CHEMBL3886568, “Pyridine derivatives as agonists of the CB2 receptor” (2016)

Biological target: Cannabinoid receptor 1 (Homo sapiens, UniProt P21554)
Experiment: cAMP Assay: CHO cells expressing human CB1 or CB2 receptors are seeded 17-24 hours prior to the experiment 50.000 cells per well in a black 96 well plate with flat clear bottom (Corning Costar #3904) in DMEM (Invitrogen No. 31331), 1×HT supplement, with 10% fetal calf serum and incubated at 5% CO2 and 37° C. in a humidified incubator. The growth medium was exchanged with Krebs Ringer Bicarbonate buffer with 1 mM IBMX and incubated at 30° C. for 30 min Compounds were added to a final assay volume of 100 ul and incubated for 30 min at 30° C. Using the cAMP-Nano-TRF detection kit the assay (Roche Diagnostics) was stopped by the addition of 50 ul lysis reagent (Tris, NaCl, 1.5% Triton X100, 2.5% NP40, 10% NaN3) and 50 ul detection solutions (20 uM mAb Alexa700-cAMP 1:1, and 48 uM Ruthenium-2-AHA-cAMP) and shaken for 2 h at room temperature. The time-resolved energy transfer is measured by a TRF reader (Evotec Technologies GmbH), equipped with a ND:YAG laser as excitation source. The plate is measured twice with the excitation at 355 nm and at the emission with a delay of 100 ns and a gate of 100 ns, total exposure time 10 s at 730 (bandwidth 30 nm) or 645 nm (bandwidth 75 nm), respectively. The FRET signal is calculated.
Format: functional, cell-based

Cannabinoid receptor 1, sequence (P21554 whole entry): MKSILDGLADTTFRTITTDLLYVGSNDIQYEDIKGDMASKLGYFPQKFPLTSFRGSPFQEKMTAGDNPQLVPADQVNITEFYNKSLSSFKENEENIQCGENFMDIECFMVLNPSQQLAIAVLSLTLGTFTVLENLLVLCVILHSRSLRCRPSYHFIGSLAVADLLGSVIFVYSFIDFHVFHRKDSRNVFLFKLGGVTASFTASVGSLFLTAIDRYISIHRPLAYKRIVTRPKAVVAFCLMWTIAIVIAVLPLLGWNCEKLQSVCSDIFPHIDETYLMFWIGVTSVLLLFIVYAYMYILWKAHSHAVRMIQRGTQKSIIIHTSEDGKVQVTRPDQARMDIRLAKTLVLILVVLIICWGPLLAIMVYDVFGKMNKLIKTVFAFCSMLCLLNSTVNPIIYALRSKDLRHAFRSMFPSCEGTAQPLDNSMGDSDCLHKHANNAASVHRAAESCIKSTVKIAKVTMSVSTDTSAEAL

Compound: O=C(N[C@@H](CC1CC1)C(=O)NC1CCC(O)C1)c1ccc(C2CC2)c(OCC2CC2)n1 (stereo partly specified)
- EC50: > 10 µM
